How the values were obtained:
Test in all cases: relative viability (nuclei count vs DMSO), 5 days (fraction); higher = more cells survive
IPA-3 + Olaparib = compound: C1=CC=C2C(=C1)C=CC(=C2SSC3=C(C=CC4=CC=CC=C43)O)O [IPA-3] + O=C(c1cc(Cc2n[nH]c(=O)c3ccccc23)ccc1F)N1CCN(C(=O)C2CC2)CC1 [Olaparib] (partner 8 µM)
Summary of the method: (§1)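 Dosing by pin tool came one day after lung cancer cell lines were seeded in 1536-well plates, using either one drug or a fixed anchor-drug dose plus five library-drug doses (not always all listed) in √10 steps. After 5 days, nuclei were counted on 4× images. Relative viability is treated-well nuclei count divided by vehicle-well nuclei count, and values are medians of duplicate plates.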

[1] = compound: Cc1ccc(-n2nc(C(C)(C)C)cc2NC(=O)Nc2ccc(OCCN3CCOCC3)c3ccccc23)cc1 [Doramapimod] + CC(=O)c1c(C)c2cnc(Nc3ccc(N4CCNCC4)cn3)nc2n(C2CCCC2)c1=O [Palbociclib] (partner 0.5 µM)
Summary of the method: as §1

Doramapimod + Foretinib = compound: Cc1ccc(-n2nc(C(C)(C)C)cc2NC(=O)Nc2ccc(OCCN3CCOCC3)c3ccccc23)cc1 [Doramapimod] + COc1cc2c(Oc3ccc(NC(=O)C4(C(=O)Nc5ccc(F)cc5)CC4)cc3F)ccnc2cc1OCCCN1CCOCC1 [Foretinib] (partner 0.25 µM)
Summary of the method: as §1

RAF265 + Decitabine = compound: Cn1c(Nc2ccc(C(F)(F)F)cc2)nc2cc(Oc3ccnc(-c4ncc(C(F)(F)F)[nH]4)c3)ccc21 [RAF265] + Nc1ncn([C@H]2C[C@H](O)[C@@H](CO)O2)c(=O)n1 [Decitabine] (partner 2 µM)
Summary of the method: as §1

| Cell Line | relative viability (IPA-3 + Olaparib; first compound 0.2 µM) | relative viability (IPA-3 + Olaparib; first compound 0.6325 µM) | relative viability (IPA-3 + Olaparib; first compound 2 µM) | relative viability (IPA-3 + Olaparib; first compound 6.325 µM) | relative viability (IPA-3 + Olaparib; first compound 20 µM) | relative viability ([1]; first compound 0.02 µM) | relative viability ([1]; first compound 0.06325 µM) | relative viability ([1]; first compound 0.2 µM) | relative viability ([1]; first compound 0.6325 µM) | relative viability ([1]; first compound 2 µM) | relative viability (Doramapimod + Foretinib; first compound 0.02 µM) | relative viability (Doramapimod + Foretinib; first compound 0.06325 µM) | relative viability (Doramapimod + Foretinib; first compound 0.2 µM) | relative viability (Doramapimod + Foretinib; first compound 0.6325 µM) | relative viability (Doramapimod + Foretinib; first compound 2 µM) | relative viability (RAF265 + Decitabine; first compound 0.01 µM) | relative viability (RAF265 + Decitabine; first compound 0.03162 µM) | relative viability (RAF265 + Decitabine; first compound 0.1 µM) | relative viability (RAF265 + Decitabine; first compound 0.3162 µM) | relative viability (RAF265 + Decitabine; first compound 1 µM) |
| --- | --- | --- | --- | --- | --- | --- | --- | --- | --- | --- | --- | --- | --- | --- | --- | --- | --- | --- | --- | --- |
| COR-L 105 | 0.757 | 0.622 | 0.663 | 0.755 | 0.665 | 0.398 | 0.421 | 0.404 | 0.449 | 0.351 | 1.03 | 0.834 | 1.04 | 1.34 | 0.917 | 0.688 | 0.773 | 0.599 | 0.497 | 0.436 |
| ChaGo-K-1 | 0.458 | 0.421 | 0.413 | 0.441 | 0.392 | 0.928 | 0.906 | 0.918 | 0.942 | 0.823 | 0.922 | 0.907 | 0.892 | 0.949 | 0.831 | 0.584 | 0.546 | 0.512 | 0.516 | 0.437 |
| EKVX | 0.942 | 0.934 | 0.787 | 0.774 | 0.86 | 0.427 | 0.351 | 0.366 | 0.337 | 0.342 | 0.831 | 0.829 | 0.789 | 0.746 | 0.764 | 0.404 | 0.318 | 0.39 | 0.201 | 0.281 |
| EMC-BAC-2 | 0.5 | 0.468 | 0.447 | 0.459 | 0.412 | 0.512 | 0.501 | 0.508 | 0.503 | 0.465 | 0.999 | 1.02 | 1.09 | 1.23 | 1 | 1.05 | 0.842 | 0.958 | 0.832 | 0.547 |
| EPLC-272H | 1.16 | 0.628 | 0.797 | 0.787 | 0.887 | 0.356 | 0.342 | 0.345 | – | 0.286 | 0.776 | 0.658 | 0.788 | 0.934 | 0.57 | 0.409 | 0.34 | 0.371 | 0.243 | 0.231 |
| H3255 | 0.605 | 0.555 | 0.565 | 0.518 | 0.562 | 0.334 | 0.302 | 0.318 | 0.292 | 0.345 | 0.844 | 0.883 | 0.945 | 0.637 | 0.726 | 0.666 | 0.564 | 0.682 | 0.198 | 0.43 |
| HARA | 0.8 | 0.802 | 0.971 | 0.694 | 0.676 | 0.232 | 0.275 | 0.262 | 0.297 | 0.264 | 0.88 | 0.841 | 0.767 | – | 0.746 | 0.652 | 0.468 | 0.53 | 0.426 | 0.414 |
| HCC-15 | 0.842 | 0.699 | 0.694 | 0.741 | 0.728 | 0.548 | 0.772 | 0.755 | 0.686 | 0.525 | 1.07 | 1.01 | 0.964 | – | 0.953 | 0.714 | 0.613 | 0.524 | 0.545 | 0.42 |
| HCC-78 | 0.885 | 0.836 | 0.805 | 0.881 | 0.932 | 0.469 | 0.511 | 0.505 | 0.509 | 0.568 | 0.542 | 0.575 | 0.54 | 0.545 | 0.539 | 0.852 | 0.73 | 0.752 | 0.731 | 0.669 |
| HCC-366 | 0.532 | 0.345 | 0.321 | 0.34 | 0.277 | 0.397 | 0.379 | 0.373 | 0.412 | 0.351 | 0.617 | 0.874 | 0.899 | 0.876 | 0.821 | 0.321 | 0.319 | 0.402 | 0.331 | 0.213 |
| HCC-827 | 0.818 | 0.579 | 0.557 | 0.737 | 0.638 | 0.456 | 0.479 | 0.493 | 0.475 | 0.329 | 1.07 | 1.06 | 1.13 | 1.04 | 0.703 | 0.341 | 0.325 | 0.294 | – | 0.333 |
| HOP-62 | 0.848 | 0.401 | 0.47 | 0.392 | 0.274 | 0.369 | 0.483 | 0.497 | 0.524 | 0.485 | 1.15 | 1.05 | 1.11 | 1.14 | 1.08 | 0.223 | 0.215 | 0.238 | 0.226 | 0.186 |
| LC-2-ad | 0.811 | 0.738 | 0.699 | 0.751 | 0.683 | 0.521 | 0.467 | 0.502 | 0.529 | 0.529 | 0.927 | 0.882 | 0.865 | 0.559 | 0.807 | 0.778 | 0.814 | 0.884 | 0.773 | 0.516 |
| LCLC-97TM1 | 0.397 | 0.337 | 0.475 | 0.265 | 0.359 | 0.233 | 0.211 | 0.257 | 0.219 | 0.171 | 0.842 | 1.02 | 0.895 | 0.94 | 0.819 | 0.248 | 0.203 | 0.191 | 0.159 | 0.122 |
| LCLC-103H | 0.765 | 0.693 | 0.78 | 0.681 | 0.789 | 0.43 | 0.396 | 0.432 | 0.42 | 0.439 | 0.627 | 0.691 | 0.598 | 0.857 | 0.73 | 0.767 | 0.714 | 0.682 | 0.695 | 0.367 |
| LK-2 | 0.831 | 0.615 | 0.788 | 0.988 | 0.938 | 0.515 | 0.576 | 0.54 | 0.518 | 0.413 | 1.04 | 1.04 | 0.919 | 1.05 | 0.925 | 0.385 | 0.339 | 0.348 | 0.316 | 0.179 |

From the supplement of paper PMC10307832
